# According to ChEMBL document CHEMBL4428102, “Discovery of an Orally Bioavailable Gonadotropin-Releasing Hormone Receptor Antagonist” (J Med Chem, 2016):
# Molecular target: T1, Gonadotropin-releasing hormone receptor (Homo sapiens, UniProt P30968)
# T1 sequence (P30968 whole entry): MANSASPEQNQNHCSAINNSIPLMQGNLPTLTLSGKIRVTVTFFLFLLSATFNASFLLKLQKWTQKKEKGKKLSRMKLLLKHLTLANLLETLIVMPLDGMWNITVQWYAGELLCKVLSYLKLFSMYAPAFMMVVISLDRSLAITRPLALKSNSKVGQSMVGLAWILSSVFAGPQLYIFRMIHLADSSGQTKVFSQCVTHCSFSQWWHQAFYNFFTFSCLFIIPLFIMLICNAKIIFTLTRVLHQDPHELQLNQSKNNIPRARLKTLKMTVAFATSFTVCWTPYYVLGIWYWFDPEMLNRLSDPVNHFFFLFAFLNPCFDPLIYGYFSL
# Experiment: Antagonist activity against human GnRH receptor expressed in HEK293 cells co-transfected with pGL4-NFAT promoter AP1-luc assessed as inhibition of 20 nM GnRH-induced NFAT activation pre-incubated for 1 hr before GnRH stimulation and measured after 6 hrs by luciferase reporter gene assay
# Type: cell-based
row,Structure (SMILES),IC50 [nM]
1,Cc1c(N2CCN(Cc3cccc4cnoc34)CC2)c(=O)n(C[C@H](N)c2ccccc2)c(=O)n1Cc1c(F)cccc1C(F)(F)F,> 300
2,Cc1c(N2CCN(Cc3cccc(=O)o3)CC2)c(=O)n(C[C@H](N)c2ccccc2)c(=O)n1Cc1c(F)cccc1C(F)(F)F,> 300
3,Cc1c(N2CCN(Cc3ccc(C(N)=O)o3)CC2)c(=O)n(C[C@H](N)c2ccccc2)c(=O)n1Cc1c(F)cccc1C(F)(F)F,> 300
4,Cc1c(N2CCN(Cc3ccc(C(C)(C)C)o3)CC2)c(=O)n(C[C@H](N)c2ccccc2)c(=O)n1Cc1c(F)cccc1C(F)(F)F,> 300
5,Cc1c(N2CCN(Cc3cccc([N+](=O)[O-])c3F)CC2)c(=O)n(C[C@H](N)c2ccccc2)c(=O)n1Cc1c(F)cccc1C(F)(F)F,115
6,CNC(=O)c1cccc(CN2CCN(c3c(C)n(Cc4c(F)cccc4C(F)(F)F)c(=O)n(C[C@H](N)c4ccccc4)c3=O)CC2)c1,170
7,Cc1c(N2CCN(Cc3nnc(C(F)(F)F)o3)CC2)c(=O)n(C[C@H](N)c2ccccc2)c(=O)n1Cc1c(F)cccc1C(F)(F)F,> 300
8,Cc1c(N2CCN(Cc3ccc(C(F)(F)F)nc3)CC2)c(=O)n(C[C@H](N)c2ccccc2)c(=O)n1Cc1c(F)cccc1C(F)(F)F,> 300
9,CCNC(=O)c1cccc(CN2CCN(c3c(C)n(Cc4c(F)cccc4C(F)(F)F)c(=O)n(C[C@H](N)c4ccccc4)c3=O)CC2)c1,> 300
10,Cc1c(N2CCN(Cc3cccc(C(N)=O)c3F)CC2)c(=O)n(C[C@H](N)c2ccccc2)c(=O)n1Cc1c(F)cccc1C(F)(F)F,42
11,Cc1c(N2CCN(Cc3cccc(F)c3C#N)CC2)c(=O)n(C[C@H](N)c2ccccc2)c(=O)n1Cc1c(F)cccc1C(F)(F)F,108
12,Cc1c(N2CCN(Cc3cc(C(F)(F)F)co3)CC2)c(=O)n(C[C@H](N)c2ccccc2)c(=O)n1Cc1c(F)cccc1C(F)(F)F,> 300

# Molecular target: T1, Gonadotropin-releasing hormone receptor
# Experiment: Displacement of [125I]D-Trp6-LHRH from human GnRH receptor expressed in CHO-K1 cell membranes incubated for 1 hr by competitive binding assay
row,Structure (SMILES),IC50 [nM]
1,Cc1c(N2CCN(CC(=O)c3ccccc3Cl)CC2)c(=O)n(C[C@H](N)c2ccccc2)c(=O)n1Cc1c(F)cccc1F,> 100
2,COc1cccc(CN2CCN(c3c(C)n(Cc4c(F)cccc4F)c(=O)n(C[C@H](N)c4ccccc4)c3=O)CC2)c1,14.8
3,Cc1c(N2CCN(CC3COc4ccccc4O3)CC2)c(=O)n(C[C@H](N)c2ccccc2)c(=O)n1Cc1c(F)cccc1F (some centres undefined),> 100
4,Cc1c(N2CCN(Cc3cccc(C(F)(F)F)c3)CC2)c(=O)n(C[C@H](N)c2ccccc2)c(=O)n1Cc1c(F)cccc1F,0.91
5,Cc1cccc(CN2CCN(c3c(C)n(Cc4c(F)cccc4F)c(=O)n(C[C@H](N)c4ccccc4)c3=O)CC2)c1,> 100
6,COc1ccccc1CN1CCN(c2c(C)n(Cc3c(F)cccc3F)c(=O)n(C[C@H](N)c3ccccc3)c2=O)CC1,> 1000
7,Cc1c(N2CCC(Cc3ccccc3)CC2)c(=O)n(C[C@H](N)c2ccccc2)c(=O)n1Cc1c(F)cccc1F,34.2
8,Cc1c(N2CCN(Cc3ccccc3OC(F)(F)F)CC2)c(=O)n(C[C@H](N)c2ccccc2)c(=O)n1Cc1c(F)cccc1F,> 100
9,Cc1c(N2CCN(Cc3cccc(Cl)c3)CC2)c(=O)n(C[C@H](N)c2ccccc2)c(=O)n1Cc1c(F)cccc1F,3.1
10,Cc1c(N2CCN(Cc3ccc(F)cc3)CC2)c(=O)n(C[C@H](N)c2ccccc2)c(=O)n1Cc1c(F)cccc1F,48.6
11,Cc1c(N2CCN(Cc3cccc(F)c3)CC2)c(=O)n(C[C@H](N)c2ccccc2)c(=O)n1Cc1c(F)cccc1F,3.8
12,Cc1c(N2CCN(Cc3ccc(C(F)(F)F)cc3)CC2)c(=O)n(C[C@H](N)c2ccccc2)c(=O)n1Cc1c(F)cccc1F,65.7
13,Cc1c(N2CCNC(CCO)C2)c(=O)n(C[C@H](N)c2ccccc2)c(=O)n1Cc1c(F)cccc1F (some centres undefined),> 100
14,Cc1c(N2CCN(C(=O)c3ccccc3)CC2)c(=O)n(C[C@H](N)c2ccccc2)c(=O)n1Cc1c(F)cccc1F,> 100
15,Cc1c(N2CCN(Cc3ccncc3)CC2)c(=O)n(C[C@H](N)c2ccccc2)c(=O)n1Cc1c(F)cccc1F,> 100
16,Cc1c(N2CCNC(c3ccccc3)C2)c(=O)n(C[C@H](N)c2ccccc2)c(=O)n1Cc1c(F)cccc1F (some centres undefined),> 100
17,COc1ccc(CN2CCN(c3c(C)n(Cc4c(F)cccc4F)c(=O)n(C[C@H](N)c4ccccc4)c3=O)CC2)cc1,> 100
18,Cc1c(N2CCN(Cc3cccc(OC(F)(F)F)c3)CC2)c(=O)n(C[C@H](N)c2ccccc2)c(=O)n1Cc1c(F)cccc1F,1.5
19,Cc1c(N2CCN(S(=O)(=O)c3ccccc3)CC2)c(=O)n(C[C@H](N)c2ccccc2)c(=O)n1Cc1c(F)cccc1F,> 100

row,Structure (SMILES),IC50 [nM]
1,Cc1c(N2CCN(Cc3cccc(C(F)(F)F)c3F)CC2)c(=O)n(C[C@H](N)c2ccccc2)c(=O)n1Cc1c(F)cccc1F,1.1
2,Cc1c(N2CCCC(c3ccccc3)C2)c(=O)n(C[C@H](N)c2ccccc2)c(=O)n1Cc1c(F)cccc1F (some centres undefined),> 100
3,Cc1c(N2CCC(Cc3ccccc3)C2)c(=O)n(C[C@H](N)c2ccccc2)c(=O)n1Cc1c(F)cccc1F (some centres undefined),> 100
4,Cc1ccc(CN2CCN(c3c(C)n(Cc4c(F)cccc4F)c(=O)n(C[C@H](N)c4ccccc4)c3=O)CC2)cc1,65.5
5,Cc1c(N2CCN(Cc3cccc4cccnc34)CC2)c(=O)n(C[C@H](N)c2ccccc2)c(=O)n1Cc1c(F)cccc1C(F)(F)F,> 100
6,Cc1c(N2CCC(C)CC2)c(=O)n(C[C@H](N)c2ccccc2)c(=O)n1Cc1c(F)cccc1F,75.6
7,Cc1c(N2CCN(Cc3ccc[nH]c3=O)CC2)c(=O)n(C[C@H](N)c2ccccc2)c(=O)n1Cc1c(F)cccc1C(F)(F)F,> 100
8,Cc1c(N2CCc3ccccc3C2)c(=O)n(C[C@H](N)c2ccccc2)c(=O)n1Cc1c(F)cccc1F,> 100
9,Cc1c(N2CCN(Cc3ccc(Cl)cc3)CC2)c(=O)n(C[C@H](N)c2ccccc2)c(=O)n1Cc1c(F)cccc1F,14
10,Cc1c(N2CCN(CC3CCCCC3)CC2)c(=O)n(C[C@H](N)c2ccccc2)c(=O)n1Cc1c(F)cccc1F,> 1000
11,Cc1c(N2CCN(Cc3ccccc3Cl)CC2)c(=O)n(C[C@H](N)c2ccccc2)c(=O)n1Cc1c(F)cccc1F,19.1
12,Cc1c(N2CCC(c3ccccc3)C2)c(=O)n(C[C@H](N)c2ccccc2)c(=O)n1Cc1c(F)cccc1F (some centres undefined),> 100
13,Cc1c(N2CCN(Cc3ccccc3[N+](=O)[O-])CC2)c(=O)n(C[C@H](N)c2ccccc2)c(=O)n1Cc1c(F)cccc1F,13.3
14,Cc1c(N2CCN(Cc3cccc(C#N)c3)CC2)c(=O)n(C[C@H](N)c2ccccc2)c(=O)n1Cc1c(F)cccc1F,5
15,Cc1c(N2CCN(Cc3ccccc3)CC2)c(=O)n(C[C@H](N)c2ccccc2)c(=O)n1Cc1c(F)cccc1F,12
16,Cc1c(N2CCN(Cc3cccc(C(=O)O)c3)CC2)c(=O)n(C[C@H](N)c2ccccc2)c(=O)n1Cc1c(F)cccc1C(F)(F)F,> 100
17,Cc1c(N2CCCCC2C)c(=O)n(C[C@H](N)c2ccccc2)c(=O)n1Cc1c(F)cccc1F (some centres undefined),> 100
18,Cc1c(N2CCN(CCCc3ccccc3)CC2)c(=O)n(C[C@H](N)c2ccccc2)c(=O)n1Cc1c(F)cccc1F,> 100
19,Cc1ccccc1CN1CCN(c2c(C)n(Cc3c(F)cccc3F)c(=O)n(C[C@H](N)c3ccccc3)c2=O)CC1,73.8

row,Structure (SMILES),IC50 [nM]
1,Cc1c(N2CCN(Cc3ccccc3C#N)CC2)c(=O)n(C[C@H](N)c2ccccc2)c(=O)n1Cc1c(F)cccc1F,6.8
2,Cc1c(N2CCN(c3ccccc3)CC2)c(=O)n(C[C@H](N)c2ccccc2)c(=O)n1Cc1c(F)cccc1F,> 1000
3,Cc1c(N2CCCCC2)c(=O)n(C[C@H](N)c2ccccc2)c(=O)n1Cc1c(F)cccc1F,129
4,Cc1c(N2CCNCC2)c(=O)n(C[C@H](N)c2ccccc2)c(=O)n1Cc1c(F)cccc1F,> 1000
5,Cc1c(N2CCN(Cc3ccc(O)cc3)CC2)c(=O)n(C[C@H](N)c2ccccc2)c(=O)n1Cc1c(F)cccc1F,35.3
6,Cc1c(N2CCN(Cc3cccc(F)c3F)CC2)c(=O)n(C[C@H](N)c2ccccc2)c(=O)n1Cc1c(F)cccc1F,10
7,Cc1c(N2CCCC(Cc3ccccc3)C2)c(=O)n(C[C@H](N)c2ccccc2)c(=O)n1Cc1c(F)cccc1F (some centres undefined),> 100
8,Cc1c(N2CCN(Cc3ccccn3)CC2)c(=O)n(C[C@H](N)c2ccccc2)c(=O)n1Cc1c(F)cccc1F,> 100
9,Cc1c(N2CCN(C(=O)OCc3ccccc3)CC2)c(=O)n(C[C@H](N)c2ccccc2)c(=O)n1Cc1c(F)cccc1F,> 100
10,Cc1c(N2CCN(Cc3ccccc3C(F)(F)F)CC2)c(=O)n(C[C@H](N)c2ccccc2)c(=O)n1Cc1c(F)cccc1F,65.6
11,Cc1c(N2CCN(Cc3ccc(C#N)cc3)CC2)c(=O)n(C[C@H](N)c2ccccc2)c(=O)n1Cc1c(F)cccc1F,10
12,Cc1c(N2CCN(Cc3ccccc3F)CC2)c(=O)n(C[C@H](N)c2ccccc2)c(=O)n1Cc1c(F)cccc1F,4.1
13,Cc1c(N2CCN[C@@H](Cc3ccccc3)C2)c(=O)n(C[C@H](N)c2ccccc2)c(=O)n1Cc1c(F)cccc1F,> 100
14,Cc1c(N2CCN(CCc3ccccc3)CC2)c(=O)n(C[C@H](N)c2ccccc2)c(=O)n1Cc1c(F)cccc1F,> 100
15,Cc1c(N2CCN[C@H](Cc3ccccc3)C2)c(=O)n(C[C@H](N)c2ccccc2)c(=O)n1Cc1c(F)cccc1F,> 100
16,Cc1c(N2CCCC(C)C2)c(=O)n(C[C@H](N)c2ccccc2)c(=O)n1Cc1c(F)cccc1F (some centres undefined),80.3
17,Cc1c(N2CCN(Cc3cccnc3)CC2)c(=O)n(C[C@H](N)c2ccccc2)c(=O)n1Cc1c(F)cccc1F,13.9
18,Cc1c(N2CCN(c3ccccn3)CC2)c(=O)n(C[C@H](N)c2ccccc2)c(=O)n1Cc1c(F)cccc1F,> 1000
19,Cc1c(N2CCN(Cc3ccc([N+](=O)[O-])cc3)CC2)c(=O)n(C[C@H](N)c2ccccc2)c(=O)n1Cc1c(F)cccc1F,36.9
